Data as given in PMC5915149, “The role of oxidative stress in activity of anticancer thiosemicarbazones” (Oncotarget, 2018).
Where two headings read alike, the source gives them in different places.

Assays:
Ndrg1 = experiment: mRNA expression (Real-Time PCR) of Ndrg1; assay type: cell-based, human; conditions: HCT116, TSC 1 µM, 12 h
Experimental: (§1) The HCT116 cells were seeded in 3 cm Petri dishes (Nunc) at a density of 0.5·10^6 cells/well and incubated overnight. Next, the medium was removed and solutions of TSC (1 μM) and DOX (5 μM) were added. After 12 or 24 h, total RNA was isolated from the cells using TRIzol Reagent (Ambion) according to the manufacturer’s instructions. cDNA synthesis was performed with 5 μg of total RNA using a GoScript™ Reverse Transcriptase kit (Promega) and Oligo(dT)23 Primers (Sigma). The Real-Time PCR was performed with a CTX96 Touch™ Real-Time PCR Detection System (Biorad) in a 20 μL reaction volume. The reaction consisted of PowerUp™ SYBR® Green Master Mix (Applied Biosystems), a primer pair mix (0.5 μM each) and 1 μL of cDNA. All primer pair sequences were purchased from Sigma-Aldrich and are listed in Supplementary Table 2. The experiment was performed under the following conditions: initial denaturation at 95° C for 120 sec; followed by 40 denaturation cycles at 95° C, 15 sec; annealing (primer-specific temperature for 30 sec) and extension at 72° C for 60 sec. Data was analyzed based on a comparison of the expression of the target genes to a reference gene – β-actin, using the 2^–ΔΔCT method. The experiments were performed at least three times.

HCT116 [1] = experiment: MTS antiproliferative assay, HCT116 (with or without added metal ions); assay type: cell-based, human; conditions: 96 h
Experimental: The cells were seeded in 96-well plates (Nunc) at a density of 3,500 cells/well (HCT116 and MCF-7) and 3,000 cells/well (NHDF) and incubated at 37° C for 24 h. The assay was performed following a 96 h incubation with varying concentrations of the compounds that were being tested. Then, 20 µL of CellTiter 96® AQueous One Solution-MTS (Promega) was added to each well (with 100 µL DMEM without phenol red) and incubated for 1 h at 37° C. The optical densities of the samples were analyzed at 490 nm using a multi-plate reader (Synergy 4, Bio Tek). Results were expressed as a percentage of the control and calculated as the inhibitory concentration (IC50) values (using GraphPad Prism 5). The IC50 parameter was defined as the compound concentration that was necessary to reduce the proliferation of cells to 50% of the untreated control. Each individual compound was tested in triplicate in a single experiment with each experiment being repeated three or four times.
The HCT116 and MCF-7 cells were seeded in 96-well plates (Nunc) at a density of 3,500 cells/well and incubated at 37° C for 24 h. The MTS assay was performed following a 96 h incubation with varying concentrations of the tested compounds. Additionally, a 20 µM solution of CuSO4, FeSO4 or FeCl3 was added into wells with the tested compounds. The results were expressed as a percentage of the control and calculated as the inhibitory concentration (IC50) values using GraphPad Prism 5. Each individual compound was tested in triplicate in a single experiment with each experiment being repeated three times.

calf-thymus DNA (CT-DNA) = experiment: Intercalation, absorption spectra with CT-DNA; assay type: binding
Experimental: For the DNA binding studies, Calf-thymus DNA (CT-DNA) was purchased from Sigma Aldrich. The lyophilized CT-DNA was dissolved in 10 mM Tris-HCl, pH 7.9, mixed gently and left overnight at 4° C. The purity of the CT-DNA solution was determined by measuring the ratio of UV absorbance at 260 and 280 nm. […] Then, the concentration of CT-DNA was determined from the absorbance at 260 nm using an extinction coefficient of 6600 M^–1cm^–1. The tested TSC and DOX were dissolved in DMSO to a concentration of 8.35 mM, which was then used as the stock solution for preparing the various concentrations (25, 12.5, 6 and 3 µM) in 1 mL in 10 mM of Tris-HCl (pH 7.9). Afterwards, 18 µM CT-DNA was added to the prepared solutions, which were incubated for 1.5 h at 37° C with occasional vortexing. The absorption spectra were measured using a Hitachi U-2900 spectrophotometer in range of 200–500 nm. All absorption spectra were imported and compared in OriginPro 8.0.

HCT116 [2] = tested on: HCT116; parameters: method as in PMID 25329549; conditions: 96 h incubation, MTS; cited from earlier work
CAT = experiment: mRNA expression (Real-Time PCR) of CAT; assay type: cell-based, human; conditions: HCT116, TSC 1 µM, after the first 12 h
Experimental: as §1

cdc2 = experiment: Western blot of cdc2; assay type: cell-based, human; conditions: HCT116, 1 µM
Experimental: The HCT116 cells were seeded in 3 cm Petri dishes (Nunc) at a density of 0.5·10^6 cells/well and incubated overnight. The next day, solutions of TSC (1 μM) and DOX (5 μM) were added and the cells incubated for 24 or 48 h. Cells were harvested by trypsinization and washed with cold PBS. Next, the cells were centrifuged and suspended in an RIPA buffer (Thermo Scientific) containing Halt Protease Inhibitor Cocktail (Thermo Scientific), Halt Phosphatase Inhibitor Cocktail (Thermo Scientific) along with 0.5 M EDTA and lysed for 20 min on ice. Then, the lysates were sonicated, centrifuged at 10,000 rpm for 10 min at 4° C and the supernatants were collected for further analysis. The protein concentration was determined using a Micro BCA™ Protein Assay Kit (Thermo Scientific) according to the manufacturer’s instructions. Equal amounts of the proteins (20 μg) were electrophoresed on SDS-Page gels and transferred onto a nitrocellulose membranes. The membranes were blocked in 5% non-fat milk prepared in PBS containing 0.1% Tween-20 (TPBS) for 1 h. After blocking, the membranes were incubated with specific primary antibodies: cdc2 (#POH1, Cell Signaling), p21^Waf1/Cip1 (#12D1, Cell Signaling), p53 (#1C12, Cell Signaling) and β-Actin (#8H10D10, Cell Signaling) overnight at 4° C, then washed and incubated with horseradish peroxidase (HRP)-conjugated secondary antibodies for 1h at room temperature. All of antibodies were diluted 1:1000 in 5% milk in TPBS. Finally, the membranes were washed and incubated with a SuperSignal™ West Pico Chemiluminescent Substrate (Thermo Scientific). The chemiluminescence signals were captured using a ChemiDoc™ XRS+ System (BioRad). The experiments were performed at least three times. Densitometric analysis was performed using ImageJ 1.41 software (Wayne Rasband, National Institutes of Health, USA).

IC50 (HCT116 [1]; 20 µM CuSO4 added, read-out: Activity - IC50 HCT116+ Cu^2+): 0.68 ± 0.15 nM | IC50 (HCT116 [1]; 20 µM FeCl3 added, read-out: Activity - IC50 HCT116+ Fe^3+): 2.07 ± 0.78 nM
Structure (SMILES): S=C(NN=C(c1ccccn1)c1ccccn1)N1CCN(c2ccccc2)CC1 [Compound 3a]
mRNA expression of Ndrg1 (Ndrg1): significant increase | % hypochromism (calf-thymus DNA (CT-DNA); bound to CT-DNA): 28.2% | Changes in absorbance (calf-thymus DNA (CT-DNA); bound to CT-DNA): hypochromism | Δε (calf-thymus DNA (CT-DNA); bound to CT-DNA): 4120.0 M⁻¹ cm⁻¹ | blue/red shift (calf-thymus DNA (CT-DNA); wavelengths of maximum absorption, compound alone vs DNA-bound): 5 nm | IC50 (HCT116 [2]): 0.81 ± 0.13 nM | mRNA expression of CAT (CAT): higher | expression of cdc2 protein (densitometric analysis) (cdc2): increased the expression
